The target of experiment [1] is T1, Cv5-HT7 (Calliphora vicina, UniProt I7IA71). Kind of experiment: cAMP-dependent CNG channel Ca2+ influx (Fluo-4) in Cv5-HT7-expressing flpTM cells, agonists. Type of experiment: cell-based. To be noted: Fluo-4 signal, Cv5-HT7-expressing flpTM cells, 100 µM IBMX; for pEC50: read-out: Cv5-HT7 EC50. Here is the method:
(§1) We applied a previously established protocol to generate cell lines that constitutively expressed either Cv5-HT2α or Cv5-HT7. […] (flpTM cells, provided by Sibion biosciences GmbH, Jülich, Germany). Approximately 8 µg of the respective expression vectors were introduced into ∼4×10^5 cells by a modified calcium-phosphate method. Stably transfected cells were selected in the presence of the antibiotics Blasticidin (0.1 mg/ml; Cv5-HT2α) or G418 (0.8 mg/ml; Cv5-HT7). Expression of Cv5-HT2α and Cv5-HT7 was monitored by Western blotting with commercially available anti-His antibodies (anti-6x His Epitope Tag; Rockland Immunochemicals Inc, Gilbertsville, USA) and anti-HA antibodies (clone 3F10; Roche, Penzberg, Germany), respectively.
(§2) The ability of Cv5-HT2α to induce Ca^2+ signals in the transfected cell line was measured with the Ca^2+-sensitive dye Fluo-4. Similarly, Cv5-HT7-induced cAMP production was indirectly monitored by the cAMP-dependent activation of the cyclic nucleotide-gated ion channel in flpTM cells (see above). The cyclic nucleotide-gated ion channel is permeable to Ca^2+ ions and thus an increase in [cAMP]i leads to an influx of Ca^2+ ions, which can be detected with Fluo-4. […] After 1 h, the loading solution was substituted for dye-free ES. To inhibit cAMP hydrolysis in Cv5-HT7-expressing cells, ES containing 100 µM isobutylmethylxanthine (IBMX) was used. Plates were transferred into a fluorescence reader (FLUOstar Omega; bmg, Offenburg, Germany) and Fluo-4 fluorescence was monitored. […] Fluorescence emission was detected at 520 nm. Once the basal fluorescence in each well had reached a stable value, various concentrations of the respective ligands were added. The resulting changes in Fluo-4 fluorescence were recorded automatically.

The target in experiment [2] is T2, Cv5-HT2α (Calliphora vicina, UniProt I7JA47). As to the kind of experiment: Ca2+ signals (Fluo-4) in Cv5-HT2α-expressing HEK 293 cells, agonists. Type of experiment: cell-based. Here is the method:
as §1, §2

Experiment [3] concerns blowfly salivary glands. As to the kind of experiment: Transepithelial potential (TEP) of blowfly salivary glands, agonists. On the set-up: key to negative TEP phase / positive TEP phase: ++: high amplitude; +: low amplitude; -: no apparent effect; -/+: variable effect. Type of experiment: cell-based, Calliphora vicina. Here is the method:
(§3) The abdominal portions of salivary glands were dissected in physiological saline (in mM: 128 NaCl, 10 KCl, 2 CaCl2, 2.7 MgCl2, 3 Na-glutamate, 2.8 maleic acid, 10 D-glucose and 10 Tris-HCl, pH 7.2). Measurements of transepithelial potential (TEP) were performed by the oil-gap method with a DPA-2F differential amplifier (npi Electronic Instruments, Tamm, Germany). Data were sampled and digitized at 1 Hz (KUSB-3102 module for AD-conversion; Keithley, Germering, Germany) by using the software TestPoint (v4.1; Capital Equipment Corp, Billerica, MA, USA) for data acquisition and storage.

The target in experiment [4] is T2, Cv5-HT2α. Kind of experiment: Inhibition of 5-HT-induced Ca2+ signals in Cv5-HT2α-expressing cells. Type of experiment: cell-based. To be noted: for IC50: read-out: Cv5-HT2α log IC50 (converted). As to the method: as §1, with “Cv5-HT7. For Cv5-HT2α expression, human embryonic kidney cells (HEK 293; ECACC, Salisbury, UK) were chosen.” for “Cv5-HT7.”
(§4) The ability of Cv5-HT2α to induce Ca^2+ signals in the transfected cell line was measured with the Ca^2+-sensitive dye Fluo-4. Similarly, Cv5-HT7-induced cAMP production was indirectly monitored by the cAMP-dependent activation of the cyclic nucleotide-gated ion channel in flpTM cells (see above). The cyclic nucleotide-gated ion channel is permeable to Ca^2+ ions and thus an increase in [cAMP]i leads to an influx of Ca^2+ ions, which can be detected with Fluo-4. Cells were grown in 96-well plates to a density of ∼3×10^4 (Cv5-HT2α) or 1.5×10^4 (Cv5-HT7) and then incubated in extracellular solution (ES in mM: 120 NaCl, 5 KCl, 2 CaCl2, 2 MgCl2, 10 glucose, 10 HEPES, pH 7.4) containing 3 mM probenecid, 0.02% (w/v) Pluronic® F-127 (Sigma) and 2 µM Fluo-4AM (Invitrogen). After 1 h, the loading solution was substituted for dye-free ES. To inhibit cAMP hydrolysis in Cv5-HT7-expressing cells, ES containing 100 µM isobutylmethylxanthine (IBMX) was used. Plates were transferred into a fluorescence reader (FLUOstar Omega; bmg, Offenburg, Germany) and Fluo-4 fluorescence was monitored. The excitation wavelength was 485 nm. Fluorescence emission was detected at 520 nm. Once the basal fluorescence in each well had reached a stable value, various concentrations of the respective ligands were added. The resulting changes in Fluo-4 fluorescence were recorded automatically.
(§5) Changes in Ca^2+-dependent Fluo-4 signals were registered automatically. Data represent the means±SD of eight replicates. […] Relative fluorescence (%) is normalized to the values obtained with 100 nM 5-HT in the absence of antagonists. […] Relative fluorescence (%) is normalized to the values obtained with 6 nM 5-HT in the absence of antagonists.

Experiment [5] has as its target T1, Cv5-HT7. Kind of experiment: Inhibition of 5-HT-induced Fluo-4 signals in Cv5-HT7-expressing cells. Particulars: for IC50: read-out: Cv5-HT7 log IC50 (converted). Type of experiment: cell-based. Here is the method: as §1, with “Cv5-HT7. For Cv5-HT2α expression, human embryonic kidney cells (HEK 293; ECACC, Salisbury, UK) were chosen.” for “Cv5-HT7.”
as §4, §5

In experiment [6] the test system is blowfly salivary glands. Kind of experiment: 5-HT-induced TEP response of blowfly salivary glands, antagonists. The experiment is classed as cell-based, Calliphora vicina. The arrangement: key to suppression of the positive TEP phase: ++: complete; +: incomplete; -: no apparent effect; -/+: variable effect; key to suppression of the negative TEP phase: ++: high amplitude; +: low amplitude; -: no apparent effect; -/+: variable effect. Particulars: for reversibility / suppression of the negative TEP phase / suppression of the positive TEP phase: TEP response evoked with 10 nM or 30 nM 5-HT. As to the method: as §3

[7] abbreviates: in the presence of 100 nM 5-HT, read-out: Cv5-HT2α IC50.
[8] abbreviates: in the presence of 6 nM 5-HT, read-out: Cv5-HT7 IC50.

The results in this text go back to paper PMC3493529, “Molecular and Pharmacological Characterization of Serotonin 5-HT2α and 5-HT7 Receptors in the Salivary Glands of the Blowfly Calliphora vicina” (PLoS ONE, 2012).

pEC50, pIC50: −log10 of the molar value. Counter-ions that a name gives are not always drawn. Like-named read-outs stand apart in the source and are kept apart here.

In general, pEC50 refers to −log10 of the EC50, conventionally taken in molar units. In general, EC50 refers to the concentration that produces a half-maximal response. By pIC50 is commonly meant the IC50 on a negative log10 scale, so that one unit is a factor of ten. As usually defined, the IC50 is the concentration at which inhibition is half-maximal.

T2 sequence (I7JA47 entry or part of it): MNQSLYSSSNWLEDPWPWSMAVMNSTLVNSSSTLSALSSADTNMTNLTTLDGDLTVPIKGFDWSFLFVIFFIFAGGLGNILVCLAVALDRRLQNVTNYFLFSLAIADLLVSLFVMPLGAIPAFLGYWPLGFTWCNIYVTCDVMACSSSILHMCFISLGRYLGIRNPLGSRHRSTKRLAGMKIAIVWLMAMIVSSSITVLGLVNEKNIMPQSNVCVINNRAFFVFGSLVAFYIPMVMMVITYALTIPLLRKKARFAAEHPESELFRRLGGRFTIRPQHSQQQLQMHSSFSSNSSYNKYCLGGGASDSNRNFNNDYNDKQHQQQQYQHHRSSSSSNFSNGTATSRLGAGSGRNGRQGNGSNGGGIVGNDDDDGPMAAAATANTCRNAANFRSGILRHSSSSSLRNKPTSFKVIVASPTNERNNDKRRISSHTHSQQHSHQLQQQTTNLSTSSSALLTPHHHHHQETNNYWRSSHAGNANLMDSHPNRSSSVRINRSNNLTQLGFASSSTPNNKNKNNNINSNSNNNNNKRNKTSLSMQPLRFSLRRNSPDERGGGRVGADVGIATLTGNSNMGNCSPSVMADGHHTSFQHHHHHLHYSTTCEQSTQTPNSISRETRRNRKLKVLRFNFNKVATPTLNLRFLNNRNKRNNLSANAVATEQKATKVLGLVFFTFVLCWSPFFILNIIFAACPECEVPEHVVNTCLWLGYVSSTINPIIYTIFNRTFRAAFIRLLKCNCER
T1 sequence (I7IA71 entry or part of it): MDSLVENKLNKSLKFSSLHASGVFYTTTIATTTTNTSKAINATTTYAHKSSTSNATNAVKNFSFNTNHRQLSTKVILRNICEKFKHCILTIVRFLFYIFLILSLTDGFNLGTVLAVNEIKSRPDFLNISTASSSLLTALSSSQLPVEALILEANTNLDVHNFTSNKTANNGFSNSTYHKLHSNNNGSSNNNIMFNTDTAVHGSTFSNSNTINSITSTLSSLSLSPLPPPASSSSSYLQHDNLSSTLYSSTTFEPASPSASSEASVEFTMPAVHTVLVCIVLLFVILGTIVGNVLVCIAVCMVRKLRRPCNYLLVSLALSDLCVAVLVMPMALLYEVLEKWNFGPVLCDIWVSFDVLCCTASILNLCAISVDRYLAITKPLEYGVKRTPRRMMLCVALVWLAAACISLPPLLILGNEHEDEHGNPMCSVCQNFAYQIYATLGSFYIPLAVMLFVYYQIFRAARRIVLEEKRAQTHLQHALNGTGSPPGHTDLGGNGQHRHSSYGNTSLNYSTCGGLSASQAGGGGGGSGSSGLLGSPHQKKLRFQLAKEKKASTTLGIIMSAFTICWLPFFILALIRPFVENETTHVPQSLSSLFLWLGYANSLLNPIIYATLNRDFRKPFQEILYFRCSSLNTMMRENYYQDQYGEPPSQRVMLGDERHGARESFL

`CCCN(CCC)C1CCc2cccc(O)c2C1` (racemic) [8-OH-DPAT, (+/−)-8-hydroxy-2-(dipropylamino)tetralin]: the pEC50 is 5.10 on Cv5-HT7 [1]; 4.21 on Cv5-HT2α [2] (Cv5-HT2α EC50, Ca2+-dependent Fluo-4 signal, Cv5-HT2α-expressing HEK 293 cells); 4.21 on Cv5-HT2α [2] (Cv5-HT2α log EC50, Ca2+-dependent Fluo-4 signal, Cv5-HT2α-expressing HEK 293 cells). Also, at Cv5-HT7 [1] (read-out: Cv5-HT7 log EC50 (converted)), the EC50 is 7.94 µM.

As to `NCCc1c[nH]c2ccc(C(N)=O)cc12` [5-CT, 5-carboxamidotryptamine], on Cv5-HT7 [1], the “Cv5-HT7 log EC50” value was −6.37±0.02 and the pEC50 was 6.37. For the same compound, in the experiment on blowfly salivary glands [3] (0.3 µM), the “TEP change of salivary glands” value was “only a positive-going TEP change”, the “negative TEP phase” value is “-”, the “positive TEP phase” value is listed as “+” and the reversibility entry was “yes”. For the same compound, in the experiment with blowfly salivary glands [3] (10 µM), the “negative TEP phase” value is recorded as “++”, the “positive TEP phase” value is recorded as “++” and the reversibility result is “yes”. The “TEP change of salivary glands” value with blowfly salivary glands [3] (concentrations 1 µM) is recorded as “biphasic TEP response”. Further, the “Cv5-HT2α log EC50” value at Cv5-HT2α [2] (Ca2+-dependent Fluo-4 signal, Cv5-HT2α-expressing HEK 293 cells) is reported as −4.29±0.05. On Cv5-HT2α [2] (Ca2+-dependent Fluo-4 signal, Cv5-HT2α-expressing HEK 293 cells, read-out: Cv5-HT2α EC50), the pEC50 is 4.29.

For `CC1CCN(CC[C@H]2CCCN2S(=O)(=O)c2cccc(O)c2)CC1` [SB-269970], on Cv5-HT2α [4] (in the presence of 100 nM 5-HT), the “Cv5-HT2α log IC50” value is −4.27±0.30. In addition, the figures for the pIC50 at Cv5-HT2α [4] (setting [7]) and at Cv5-HT7 [5] (setting [8]) were 4.28 and 8.05, respectively. Further, the “Cv5-HT7 log IC50” value on Cv5-HT7 [5] (in the presence of 6 nM 5-HT) is −8.06±0.21. On Cv5-HT7 [5] (in the presence of 6 nM 5-HT), the “inhibitory efficacy at Cv5-HT7 (reduction of the 5-HT-evoked cellular response)” value is on record as ~15%.

On to `CN(C)CCCSc1ccccc1NC(=O)/C=C/c1ccccc1` [cinanserin, cinanserin hydrochloride], for which, in the experiment on blowfly salivary glands [6] (10 µM), the “effect on 5-HT-induced TEP response” value is on record as “reversibly but incompletely inhibited the positive phase”, the reversibility result is “yes”, the “suppression of the negative TEP phase” value is reported as “-” and the “suppression of the positive TEP phase” value is on record as “+”. Besides, the pIC50 at Cv5-HT2α [4] (setting [7]) is 4.52. At Cv5-HT2α [4] (in the presence of 100 nM 5-HT), the half-inhibitory concentration (IC50) was 29.5 µM. Besides, the pIC50 at Cv5-HT7 [5] (setting [8]) was 6.40. Moreover, the IC50 at Cv5-HT7 [5] (in the presence of 6 nM 5-HT) was 398 nM.

Consider `CN1CCN(C2=Nc3cc(Cl)ccc3Nc3ccccc32)CC1` [clozapine], for which, in the experiment with blowfly salivary glands [6] (1 µM, 30 nM 5-HT), the “effect on 5-HT-induced TEP response” value is “completely and selectively inhibited the positive TEP phase”. Also, in the experiment on blowfly salivary glands [6] (1 µM), the reversibility entry is listed as “yes”, the “suppression of the negative TEP phase” value is “-” and the “suppression of the positive TEP phase” value was “++”.

On to `NCCc1c[nH]cn1` [histamine], for which the “effect on [Ca2+]i in Cv5-HT2α-expressing cells” value on Cv5-HT2α [2] (1 µM biogenic amine, non-transfected cells as control) is given as “stimulated Ca^2+ signals”.

On to `O=C(c1ccc(F)cc1)C1CCN(CCn2c(=O)[nH]c3ccccc3c2=O)CC1` [ketanserin], for which the pIC50 on Cv5-HT2α [4] (setting [7]) was 4.85; at Cv5-HT7 [5] (setting [8]), 5.82. Also, the IC50 at Cv5-HT2α [4] (in the presence of 100 nM 5-HT) is 14.1 µM; on Cv5-HT7 [5] (in the presence of 6 nM 5-HT) it was 1450 nM.

Consider `CSc1ccc2c(c1)C(N1CCN(C)CC1)Cc1ccccc1S2` (stereo not drawn) [methiothepin], for which, in the experiment with blowfly salivary glands [6] (3 µM), the reversibility entry is listed as “no”, the “suppression of the negative TEP phase” value is reported as “-/+” and the “suppression of the positive TEP phase” value is listed as “++”. Further, in the experiment with blowfly salivary glands [6] (≥1 µM), the “effect on 5-HT-induced TEP response” value is listed as “completely abolished the positive TEP phase”. Besides, the “Cv5-HT2α log IC50” value on Cv5-HT2α [4] (in the presence of 100 nM 5-HT) is on record as −5.92±0.06. Moreover, the negative logarithm of the IC50 (pIC50) at Cv5-HT2α [4] (setting [7]) is 5.92. The “antagonistic effect on Cv5-HT7” value on Cv5-HT7 [5] (high concentrations (10 µM)) is on record as “slight antagonistic effect”. On Cv5-HT7 [5] (in the presence of 6 nM 5-HT), the “Cv5-HT7 IC50” value was “not calculable” and the “Cv5-HT7 log IC50” value was “not calculable”.

Take `Cc1ccc(N(CC2=NCCN2)c2cccc(O)c2)cc1` [phentolamine]: the pIC50 at Cv5-HT2α [4] (setting [7]) is 3.70; at Cv5-HT7 [5] (setting [8]), 5.33. Moreover, the values for the IC50 on Cv5-HT2α [4] (in the presence of 100 nM 5-HT) and on Cv5-HT7 [5] (in the presence of 6 nM 5-HT) were 200 µM and 4680 nM, respectively.

Turning to `O=C(CCCN1CCC2(CC1)C(=O)NCN2c1ccccc1)c1ccc(F)cc1` [spiperone], in the experiment with blowfly salivary glands [6] (1-10 µM), the reversibility result is given as “yes”, the “suppression of the negative TEP phase” value is recorded as “-” and the “suppression of the positive TEP phase” value is listed as “+”. Further, the “effect on 5-HT-induced TEP response” value with blowfly salivary glands [6] (1–10 µM) is “reversibly but incompletely inhibited the positive phase”. Further, at Cv5-HT2α [4] (in the presence of 100 nM 5-HT), the “Cv5-HT2α IC50” value is on record as “no effect” and the “Cv5-HT2α log IC50” value is “no effect”. On Cv5-HT7 [5] (setting [8]), the pIC50 is 6.55. Also, at Cv5-HT7 [5] (in the presence of 6 nM 5-HT), the IC50 was 275 nM.

As to `COC(=O)[C@@H]1[C@H]2C[C@H]3c4[nH]c5ccccc5c4CCN3C[C@@H]2CC[C@@H]1O` [yohimbine], the pIC50 at Cv5-HT2α [4] (Cv5-HT2α IC50, in the presence of 100 nM 5-HT) is 5.54; at Cv5-HT2α [4] (Cv5-HT2α log IC50, in the presence of 100 nM 5-HT), 5.54; on Cv5-HT7 [5] (Cv5-HT7 IC50, in the presence of 6 nM 5-HT), 3.72; at Cv5-HT7 [5] (Cv5-HT7 log IC50, in the presence of 6 nM 5-HT), 3.72.
